Laboratory results: patent US9340507B2, “Substituted 4-pyridones and their use as inhibitors of neutrophil elastase activity” (Boehringer Ingelheim International GmbH, priority 2012, dated 2016)

biological target: Human neutrophil elastase (Homo sapiens (Human), UniProt P08246); assay: Human Neutrophil Elastase Assay; format: biochemical; conditions: substrate MeOSuc-Ala-Ala-Pro-Val-AMC 250 μM, pH 7.5, fluorescence
Method: Human Neutrophil Elastase Assay
All other materials were of the highest grade commercially available.
The following buffers were used: Compound buffer: 100 mM Tris, 500 mM NaCl, adjusted to pH 7.5; Assay buffer: 100 mM Tris, 500 mM NaCl, adjusted to pH 7.5, containing 0.01% BSA.
Assay conditions: Test compounds were prediluted in DMSO and subsequently in compound buffer (5% DMSO final). […] After inactivation of the enzyme, fluorescence intensities were measured at 380 nm excitation and 460 nm emission wavelengths.
Each plate contains wells with a high value control (DMSO+enzyme+substrate) and wells with a low value control (DMSO+inactivated enzyme+substrate). IC50 values were estimated using a sigmoidal concentration response curve with variable slope. Means of low values were taken as 0%, means of high values as 100%. IC50 values of selected compound in the Neutrophil Elastase assay: […]

Human neutrophil elastase, sequence (P08246 30-267): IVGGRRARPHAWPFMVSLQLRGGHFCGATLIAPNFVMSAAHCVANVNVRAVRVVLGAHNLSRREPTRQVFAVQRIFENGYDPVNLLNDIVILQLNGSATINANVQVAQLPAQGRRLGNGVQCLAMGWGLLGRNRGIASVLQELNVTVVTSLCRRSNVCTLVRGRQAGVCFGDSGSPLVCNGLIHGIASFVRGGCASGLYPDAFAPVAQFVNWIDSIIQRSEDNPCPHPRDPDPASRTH

Structure (SMILES)	IC50
Cc1c(-c2ccnc(C(F)(F)F)c2)c(=O)c(C(=O)NCc2ccc([S+](C)[O-])cc2)cn1C(C)C (stereo not drawn) [Example 27.2, 1-Isopropyl-2-methyl-4-oxo-2′-trifluoromethyl-1,4-dihydro-[3,4′]bipyridinyl-5-carboxylic acid 4-methanesulfinyl-benzylamide]	51 nM
CCn1cc(C(=O)NCc2ccc(S(C)(=O)=O)cc2)c(=O)c(-c2cccc(C(F)(F)F)c2)c1C [Example 1.1, 1-Ethyl-6-methyl-4-oxo-5-(3-trifluoromethyl-phenyl)-1,4-dihydro-pyridine-3-carboxylic acid 4-methanesulfonyl-benzylamide]	33 nM
COCCn1cc(C(=O)NCc2ccc(S(C)(=O)=O)c[n+]2[O-])c(=O)c(-c2cccc(C(F)(F)F)c2)c1C [Example 16, 1-(2-Methoxy-ethyl)-6-methyl-4-oxo-5-(3-trifluoromethyl-phenyl)-1,4-dihydro-pyridine-3-carboxylic acid (5-methanesulfonyl-1-oxy-pyridin-2-ylmethyl)-amide]	63 nM
Cc1c(-c2cccc(C(F)(F)F)c2)c(=O)c(C(=O)NCc2ccc(C#N)cc2)cn1C(C)C [Example 3.5]	64 nM
Cc1c(-c2cccc(C(F)F)c2)c(=O)c(C(=O)NCc2ccc(S(C)(=O)=O)cn2)cn1C1CCC1 [Example 18.2, 1-Cyclobutyl-5-(3-difluoromethyl-phenyl)-6-methyl-4-oxo-1,4-dihydro-pyridine-3-carboxylic acid (5-methanesulfonyl-pyridin-2-ylmethyl)-amide]	35 nM
Cc1c(-c2cccc(C(F)F)c2)c(=O)c(C(=O)NCc2cnn(C)c2)cn1C(C)C [Example 4.2]	60 nM
Cc1c(-c2ccnc(C(F)(F)F)c2)c(=O)c(C(=O)NCc2ccc(S(C)(=O)=O)cc2)cn1C(C)C [Example 5.1, 1-Isopropyl-2-methyl-4-oxo-2′-trifluoromethyl-1,4-dihydro-[3,4]bipyridinyl-5-carboxylic acid 4-methanesulfonyl-benzylamide]	72 nM
Cc1c(-c2cccc(C(F)F)c2)c(=O)c(C(=O)NCc2cccc(=O)[nH]2)cn1C(C)C [Example 4.4]	72 nM
Cc1c(-c2ccnc(C(F)(F)F)c2)c(=O)c(C(=O)NCc2ccc(S(C)(=O)=O)cn2)cn1C(C)C [Example 17.3, 1-Isopropyl-2-methyl-4-oxo-2′-trifluoromethyl-1,4-dihydro-[3,4]bipyridinyl-5-carboxylic acid (5-methanesulfonyl-pyridin-2-ylmethyl)-amide]	77 nM
CCCn1cc(C(=O)NCc2ccc(S(C)(=O)=O)cc2)c(=O)c(-c2cccc(C(F)(F)F)c2)c1C [Example 1.3]	28 nM
Cc1c(-c2cccc(C(F)(F)F)c2)c(=O)c(C(=O)NCc2ccc(S(C)(=O)=O)cn2)cn1CC(C)C [Example 2.3]	30 nM
Cc1c(-c2cncc(C(F)(F)F)c2)c(=O)c(C(=O)NCc2ccc(S(C)(=O)=O)cc2)cn1C(C)C [Example 5.5]	91 nM
COc1cc(S(C)(=O)=O)ccc1CNC(=O)c1cn(C(C)C)c(C)c(-c2cccc(C(F)(F)F)c2)c1=O [Example 47, 1-Isopropyl-6-methyl-4-oxo-5-(3-trifluoromethyl-phenyl)-1,4-dihydro-pyridine-3-carboxylic acid 4-methanesulfonyl-2-methoxy-benzylamide]	38 nM
COCCn1cc(C(=O)NCc2ccc(S(C)(=O)=O)cn2)c(=O)c(-c2cccc(C(F)(F)F)c2)c1C [Example 21, 1-(2-Methoxy-ethyl)-6-methyl-4-oxo-5-(3-trifluoromethyl-phenyl)-1,4-dihydro-pyridine-3-carboxylic acid (5-methanesulfonyl-pyridin-2-ylmethyl)-amide]	43 nM
COC[C@@H](C)n1cc(C(=O)NCc2ccc(S(C)(=O)=O)cc2)c(=O)c(-c2cccc(C(F)F)c2)c1C [Example 44, (R)-5-(3-Difluoromethyl-phenyl)-1-(2-methoxy-1-methyl-ethyl)-6-methyl-4-oxo-1,4-dihydro-pyridine-3-carboxylic acid 4-methanesulfonyl-benzylamide]	45 nM
CC[C@H](C)n1cc(C(=O)NCc2ccc(S(C)(=O)=O)cn2)c(=O)c(-c2ccnc(C(F)(F)F)c2)c1C [Example 20.3, (S)-1-sec-Butyl-2-methyl-4-oxo-2′-trifluoromethyl-1,4-dihydro-[3,4]bipyridinyl-5-carboxylic acid (5-methanesulfonyl-pyridin-2-ylmethyl)-amide]	63 nM
Cc1nnc(CNC(=O)c2cn(C3CCC3)c(C)c(-c3cccc(C(F)F)c3)c2=O)o1 [Example 24.2, 1-Cyclobutyl-5-(3-difluoromethyl-phenyl)-6-methyl-4-oxo-1,4-dihydro-pyridine-3-carboxylic acid (5-methyl-[1,3,4]oxadiazol-2-ylmethyl)-amide]	55 nM

Next, values leading:

IC50	Structure (SMILES)
28 nM	Cc1c(-c2cccc(C(F)F)c2)c(=O)c(C(=O)NCc2cn3ccccc3n2)cn1C(C)C [Example 4.6]
30 nM	Cc1c(-c2cccc(C(F)(F)F)c2)c(=O)c(C(=O)NCc2ccc([S+](C)[O-])cc2)cn1C(C)C (single isomer, unassigned) [Example 27.1B]
15 nM	Cc1c(-c2ccnc(C(F)(F)F)c2)c(=O)c(C(=O)NCc2ccc3c(c2)CCS3(=O)=O)cn1C(C)C [Example 29.3, 1-Isopropyl-2-methyl-4-oxo-2′-trifluoromethyl-1,4-dihydro-[3,4]bipyridinyl-5-carboxylic acid (1,1-dioxo-2,3-dihydro-1H-1λ^6-benzo[b]thiophen-5-ylmethyl)-amide]
15 nM	Cc1c(-c2cccc(C(F)(F)F)c2)c(=O)c(C(=O)NCc2ccc(S(C)(=O)=O)c(F)c2)cn1C(C)C [Example 32, 1-Isopropyl-6-methyl-4-oxo-5-(3-trifluoromethyl-phenyl)-1,4-dihydro-pyridine-3-carboxylic acid 3-fluoro-4-methanesulfonyl-benzylamide]
9 nM	Cc1c(-c2cccc(C(F)(F)F)c2)c(=O)c(C(=O)NCc2ccc([S+](C)[O-])cc2)cn1C(C)C (racemic) [Example 27.1, 1-Isopropyl-6-methyl-4-oxo-5-(3-trifluoromethyl-phenyl)-1,4-dihydro-pyridine-3-carboxylic acid 4-methanesulfinyl-benzylamide]
16 nM	Cc1c(-c2cccc(C(F)F)c2)c(=O)c(C(=O)NCc2ccc(S(C)(=O)=O)c(F)c2)cn1C(C)C [Example 33, 5-(3-Difluoromethyl-phenyl)-1-isopropyl-6-methyl-4-oxo-1,4-dihydro-pyridine-3-carboxylic acid 3-fluoro-4-methanesulfonyl-benzylamide]
3 nM	Cc1c(-c2cccc(C(F)F)c2)c(=O)c(C(=O)NCc2ccc3c(c2)CCS3(=O)=O)cn1C(C)C [Example 29.2, 5-(3-Difluoromethyl-phenyl)-1-isopropyl-6-methyl-4-oxo-1,4-dihydro-pyridine-3-carboxylic acid (1,1-dioxo-2,3-dihydro-1H-1λ^6-benzo[b]thiophen-5-ylmethyl)-amide]
19 nM	Cc1c(-c2ccc(F)c(C(F)(F)F)c2)c(=O)c(C(=O)NCc2ccc(S(C)(=O)=O)cc2)cn1C(C)C [Example 5.2]
18 nM	Cc1c(-c2cccc(C(F)F)c2)c(=O)c(C(=O)NCc2ccc(Cn3ccnc3)cc2)cn1C(C)C [Example 4.11]
9 nM	CC[C@H](C)n1cc(C(=O)NCc2ccc(S(C)(=O)=O)cc2)c(=O)c(-c2cccc(C(F)(F)F)c2)c1C [Example 12.1, (S)-1-sec-Butyl-6-methyl-4-oxo-5-(3-trifluoromethyl-phenyl)-1,4-dihydro-pyridine-3-carboxylic acid 4-methanesulfonyl-benzylamide]
28 nM	Cc1nnc(CNC(=O)c2cn(C3CCCC3)c(C)c(-c3cccc(C(F)F)c3)c2=O)o1 [Example 9.1, 1-Cyclopentyl-5-(3-difluoromethyl-phenyl)-6-methyl-4-oxo-1,4-dihydro-pyridine-3-carboxylic acid (5-methyl-[1,3,4]oxadiazol-2-ylmethyl)-amide]
10 nM	CC[C@@H](C)n1cc(C(=O)NCc2ccc(S(C)(=O)=O)cn2)c(=O)c(-c2cccc(C(F)F)c2)c1C [Example 19.2, (R)-1-sec-Butyl-5-(3-difluoromethyl-phenyl)-6-methyl-4-oxo-1,4-dihydro-pyridine-3-carboxylic acid (5-methanesulfonyl-pyridin-2-ylmethyl)-amide]
8 nM	CC[C@@H](C)n1cc(C(=O)NCc2ccc(S(C)(=O)=O)cc2)c(=O)c(-c2cccc(C(F)F)c2)c1C [Example 11.1, (R)-1-sec-Butyl-5-(3-difluoromethyl-phenyl)-6-methyl-4-oxo-1,4-dihydro-pyridine-3-carboxylic acid 4-methanesulfonyl-benzylamide]
7 nM	Cc1cc(CNC(=O)c2cn(C(C)C)c(C)c(-c3cccc(C(F)(F)F)c3)c2=O)ccc1S(C)(=O)=O [Example 28.1, 1-Isopropyl-6-methyl-4-oxo-5-(3-trifluoromethyl-phenyl)-1,4-dihydro-pyridine-3-carboxylic acid 4-methanesulfonyl-3-methyl-benzylamide]
27 nM	Cc1cc(CNC(=O)c2cn(C(C)C)c(C)c(-c3ccnc(C(F)(F)F)c3)c2=O)ccc1S(C)(=O)=O [Example 28.3, 1-Isopropyl-2-methyl-4-oxo-2′-trifluoromethyl-1,4-dihydro-[3,4]bipyridinyl-5-carboxylic acid 4-methanesulfonyl-3-methyl-benzylamide]
27 nM	Cc1nnc(CNC(=O)c2cn(C(C)C)c(C)c(-c3cccc(C(F)F)c3)c2=O)o1 [Example 4.3]
